{
  "source": "patent US11123378B2",
  "about": "“Compositions comprising bacterial strains” (4D Pharma Research Limited, priority 2017, dated 2021)",
  "system": "cerebral tissues in the cerebral ischemia-reperfusion I/R model in mice",
  "assay": "Histological evaluation (H&E) of cerebral tissues in the cerebral ischemia-reperfusion I/R model",
  "type": "in vivo",
  "details": "right hemisphere hippocampus; termination day 15 or day 29; compared to PBS negative control (2M)",
  "excerpt": "At termination of the experiment, at either day 15 or day 29, the mice cerebral tissues were subjected to histopathological examinations.\nThe tissues were studied for pyknotic score (which assesses the extent of cell necrosis and death) and for vacuolisation (which assesses the extent of degeneration similar to apoptosis).\nAt termination the animals were sacrificed by CO2 asphyxiation. Where possible, half of the animals were sacrificed on day 15, and the other half were sacrificed on day 29. […] Brains were also harvested following saline perfusion. The right hemisphere of each brain was fixed with 2.5% Paraformaldehyde and stored at 2-8° C.\nThe sections of the right hemisphere of all animals per group were loaded onto slides followed by histological examination. Tissues were trimmed, embedded in paraffin, sectioned at approximately 5 microns thickness and stained with Hematoxylin & Eosin (H&E) (as well as with TUNEL reagents) using standardized protocols. The slides were examined under a light microscope. […]\nThe numbers of karyopy-knosis and apoptotic cells were counted, and the mean values were calculated. […] Ten field of ×20 magnifications were evaluated for the pyknosis and vacuolization score as follows.\nPyknosis and vacuolization, semi-quantitative scores: • 1. […]\nA score was determined for each field of ×20 magnification for each mouse in a given sample group.",
  "data": [
    {"compound": "C[C@]12N[C@H](Cc3ccccc31)c1ccccc12", "note": "[MK-801]", "values": [
      {"measurement": "semi-quantitative pyknosis score (H&E)", "result": "reduced pyknosis score"},
      {"measurement": "semi-quantitative vacuolisation score (H&E)", "result": "did not reduce the vacuolisation score"}
    ]}
  ]
}
